# Source: publication PMC12280126, “Potent β-lactam-based tyrosyl-DNA phosphodiesterase 1 inhibitors identified by a virtual screen” (Scientific Reports, 2025)
# Where “and” joins values, the source holds several entries; their conditions need not be identical. Identical values can stand only once. Counter-ions that a name gives are not always drawn. Like-named read-outs stand apart in the source and are kept apart here.
# What was measured:
# recombinant TDP1 = target: T1, recombinant TDP1 (Homo sapiens, UniProt Q9NUW8); assay: in vitro gel-based fluorescence TDP1 catalytic assay; assay type: biochemical
# T1 construct: incubated with 40 pM full-length recombinant TDP1 or TDP1 (148–608)
# T1 sequence (Q9NUW8 whole entry): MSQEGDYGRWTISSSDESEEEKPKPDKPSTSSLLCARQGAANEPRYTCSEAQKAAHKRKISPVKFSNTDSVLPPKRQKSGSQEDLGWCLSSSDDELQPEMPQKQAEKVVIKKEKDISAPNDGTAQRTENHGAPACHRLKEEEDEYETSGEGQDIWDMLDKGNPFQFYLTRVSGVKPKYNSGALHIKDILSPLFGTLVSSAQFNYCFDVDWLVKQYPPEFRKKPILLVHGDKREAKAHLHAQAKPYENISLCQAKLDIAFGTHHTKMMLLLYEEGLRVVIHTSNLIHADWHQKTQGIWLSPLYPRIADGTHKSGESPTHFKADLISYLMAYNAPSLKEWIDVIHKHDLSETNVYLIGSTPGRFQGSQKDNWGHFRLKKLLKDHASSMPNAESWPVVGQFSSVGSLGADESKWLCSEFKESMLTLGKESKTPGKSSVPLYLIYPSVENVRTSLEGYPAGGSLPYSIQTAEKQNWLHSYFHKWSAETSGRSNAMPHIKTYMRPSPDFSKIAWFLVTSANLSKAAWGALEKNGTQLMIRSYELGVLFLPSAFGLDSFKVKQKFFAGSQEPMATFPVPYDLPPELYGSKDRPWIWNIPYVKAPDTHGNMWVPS
# Protocol: We subjected select virtual screen hits to evaluation of TDP1 inhibitory potencies using in vitro gel-based fluorescence TDP1 catalytic assays (Fig. 2). […] To further explore this class of compounds, we purchased from TargetMol a library of approximately 90 β-lactams as 10 mM solutions in DMSO. […] We examined TDP1 inhibitory potencies of the compounds using the in vitro gel-based fluorescence assays as previously described[21]–[24]. Briefly, a 5’-Cy5-labeled DNA substrate (N14Y, 5’-Cy5-[…]-pY-3’, 1 nM) was incubated in TDP1 reaction buffer with recombinant TDP1 or truncated TDP1(148–608) (40 pM) in the absence or presence of inhibitors for 15 min at room temperature. […] The TDP1 inhibition IC50 values were calculated based on gel images of the cleavage product (N14P, 5’-Cy5-[…]-p-3’) (Fig. 3A and Table S2).
# (§1) The inhibition of TDP1 and TDP2 were conducted according to gel-based methods as previously described[21]–[24],[45]. Briefly, 1 nM of the DNA substrate (N14Y, 5´Cy5-[…]-pY-3´) was incubated with 40 pM full-length recombinant TDP1 or TDP1 (148–608) in the absence or presence of inhibitors for 15 min at room temperature in TDP1 reaction buffer (50 mM Tris-HCl, pH 7.5, 80 mM KCl, 2 mM EDTA, 1 mM DTT, 40 µg/mL BSA and 0.01% Tween 20). The inhibition of TDP2 was also conducted by using similar conditions. […] The reactions of both TDP1 and TDP2 were stopped by adding an equal volume of gel loading buffer (99.5% (v/v) formamide, 5 mM EDTA). The samples were then subjected to a 20% denaturing PAGE gel followed by gel scanning using a Typhoon FLA 9500 scanner (GE Healthcare). The IC50 values of the TDP1 inhibitors were calculated by comparing the percentage of the cleavage product (N14P, 5´Cy5-[…]-p-3´) produced to that in the DMSO control. The IC50 values of the TDP2 inhibitors were calculated by comparing the percentage of the cleavage product (PN18, 5’-p-[…]-Cy5-3’) produced to that in the DMSO control.
# recombinant TDP2 = target: T2, recombinant TDP2 (Homo sapiens, UniProt O95551); assay: in vitro gel-based fluorescence TDP2 assay (counterscreen); assay type: biochemical; conditions: for IC50: 15 min, RT
# T2 sequence (O95551 1-362): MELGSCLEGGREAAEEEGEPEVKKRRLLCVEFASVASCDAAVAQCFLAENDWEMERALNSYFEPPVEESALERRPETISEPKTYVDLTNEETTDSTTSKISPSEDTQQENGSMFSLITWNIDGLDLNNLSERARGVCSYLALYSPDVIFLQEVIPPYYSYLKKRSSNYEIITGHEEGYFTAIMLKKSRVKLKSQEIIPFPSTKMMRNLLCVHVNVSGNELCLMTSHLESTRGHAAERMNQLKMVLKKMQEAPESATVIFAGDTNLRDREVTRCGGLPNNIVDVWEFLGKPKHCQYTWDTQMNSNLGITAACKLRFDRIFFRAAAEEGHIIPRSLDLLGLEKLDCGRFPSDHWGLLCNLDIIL
# Protocol: as §1
# TDP1(148–608) [1] = target: T3, TDP1(148–608) (Homo sapiens, UniProt Q9NUW8); assay: Surface plasmon resonance (SPR) binding analysis
# T3 construct: SPR experiments were recorded for the truncated TDP1(148–608) and the β-lactam compound
# T3 sequence (Q9NUW8 148-608): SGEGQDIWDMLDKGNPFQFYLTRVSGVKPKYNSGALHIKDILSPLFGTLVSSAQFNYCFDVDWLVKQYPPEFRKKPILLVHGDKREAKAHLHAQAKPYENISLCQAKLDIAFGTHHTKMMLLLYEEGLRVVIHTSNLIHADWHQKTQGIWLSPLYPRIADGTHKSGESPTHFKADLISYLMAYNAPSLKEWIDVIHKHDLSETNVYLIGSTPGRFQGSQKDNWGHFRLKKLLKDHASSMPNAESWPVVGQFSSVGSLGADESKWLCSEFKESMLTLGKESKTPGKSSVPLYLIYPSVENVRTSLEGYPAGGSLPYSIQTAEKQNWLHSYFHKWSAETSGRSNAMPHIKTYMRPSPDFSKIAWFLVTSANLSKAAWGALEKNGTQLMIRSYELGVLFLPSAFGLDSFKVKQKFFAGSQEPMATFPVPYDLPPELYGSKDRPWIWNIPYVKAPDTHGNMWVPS
# Text: A central mechanism of action of β-lactam antibiotics involves covalent modification of serine residues in PBPs. However, β-lactams are also known to covalently modify proteins more broadly[35],[42]. Mass spectroscopy has proven to be invaluable in characterizing protein modification by β-lactams[43],[44]. […] We evaluated cephalosporin C (11) in SPR studies. For SPR, we immobilized the TDP1(148–608) on an SPR chip and measured the binding of compounds as a function of concentration.
# SPR experiments were recorded for the truncated TDP1(148–608) and the β-lactam compound with Biacore T200 system (GE Healthcare). Using the amine coupling kit (Cytiva), 11,000 RU of TDP1 was covalently immobilized on a CM5 chip (Cytiva) via amine coupling. The β-lactam compounds were prepared in HBS-P buffer (Cytiva). Experiments in high-performance mode was carried out using five injections (30 µL/min) of increasing concentrations of the β-lactam (50 nM – 25 µM) passed over the sensor chip for 180 s, followed by a 1200 s dissociation. Buffer and reference signals were subtracted and binding affinities (Kd) were determined using the Biacore T200 evaluation software (GE Healthcare).
# TDP1(148–608) [2] = target: T3, TDP1(148–608); assay: gel-based fluorescence assay with truncated TDP1 compared with full-length TDP1; assay type: biochemical
# Protocol: as §1
# [3] = system: human colon cancer cell line HCT116; assay: Cell viability, synergistic effect with camptothecin (CPT); assay type: cell-based
# Protocol: We undertook further assays to determine whether the β-lactams could act in cells as TDP1 inhibitors.
# The synergistic effects of the TDP1 inhibitors with CPT were tested in human colon cancer cell line HCT116 based on cell viability[22],[23]. Cells were first seeded in a 384-well black-clear plate until 30% confluency and then incubated with a serial dilution of CPT at the range of 0-100 nM (0, 12.5, 25, 50, 100 nM) in the present or the absence of desired concentrations of TDP1 inhibitors for 72 h at 37 °C. DMSO was used as control. Viable cell numbers were counted from the brightfield images taken by Biotek Cytation 5.
# TDP1(148–608) [4] = target: T3, TDP1(148–608); assay: Intact mass and PTM-mapping mass spectrometry for covalent modification; conditions: enzyme-to-compound ratios 1:125 to 1:1000
# Protocol: We also digested the TDP1 following incubation with the compounds.
# [5] = 40 pM recombinant TDP1, 1 nM N14Y DNA substrate, 15 min, room temperature, read-out: TDP1 IC50
# [6] = 40 pM recombinant TDP2, 1 nM YN18 DNA substrate, read-out: TDP2 IC50
# [7] = TDP1 IC50, 40 pM recombinant TDP1, 1 nM N14Y DNA substrate, 15 min, room temperature
# [8] = TDP2 IC50, 40 pM recombinant TDP2, 1 nM YN18 DNA substrate
Compound,IC50 (recombinant TDP1; [5]),IC50 (recombinant TDP2; [6]) [µM],also measured
"CC1(Cn2ccnn2)C(C(=O)O)N2C(=O)CC2S1(=O)=O (centres unmarked) [LF8, Tazobactam acid]",73.8 µM and < 100 µM and 74 µM,45.5,
"CC(C)(O/N=C(\C(=O)N[C@@H]1C(=O)N2C(C(=O)[O-])=C(C[n+]3ccccc3)CS[C@H]12)c1csc(N)n1)C(=O)O [LF6, Ceftazidime]",5.8 µM and < 100 µM,18.9 ± 2.2,
"CC(=O)OCC1=C(C(=O)O)N2C(=O)[C@@H](NC(=O)Cc3cccs3)[C@H]2SC1 [LG7, Cephalothin sodium]",,35.2,
"C=CC1=C(C(=O)O)N2C(=O)[C@@H](NC(=O)/C(=N\OCC(=O)O)c3csc(N)n3)[C@H]2SC1 [LH5, Cefixime]",4 µM and < 100 µM,69.3 ± 6,
"COc1cccc2c1cc1c3c(cc4c(c32)OCO4)C(=O)N1 [LE2, Aristololactam I]",80.6 µM and 81 µM,70.1,IC50 (recombinant TDP1; [7]): < 100 µM
"CC(=O)OCC1=C(C(=O)O)N2C(=O)[C@@H](NC(=O)CCC[C@@H](N)C(=O)O)[C@H]2SC1 [11-Zn, Cephalosporin C Zinc salt]",,,"IC50 (recombinant TDP1; read-out: TDP1 IC50, 40 pM recombinant TDP1, 1 nM N14Y DNA substrate, 15 min, room temperature): 5.3 µM; IC50 (recombinant TDP2; read-out: TDP2 IC50, 40 pM recombinant TDP2, 1 nM YN18 DNA substrate): 89.1 µM"
"Cc1onc(-c2c(F)cccc2Cl)c1C(=O)N[C@@H]1C(=O)N2[C@@H]1SC(C)(C)[C@@H]2C(=O)O [LC11, Flucloxacillin sodium]",,36 ± 1.35,
"CC1(C)S[C@@H]2[C@H](NC(=O)[C@H](N)c3ccccc3)C(=O)N2[C@H]1C(=O)O [LD1, Ampicillin Trihydrate]",77.3 µM and < 100 µM and 77 µM,> 1000,
"CCN1CCN(C(=O)N[C@@H](C(=O)N[C@@H]2C(=O)N3[C@@H]2SC(C)(C)[C@@H]3C(=O)O)c2ccccc2)C(=O)C1=O [LA2, piperacillin]",28 µM and < 100 µM,224 ± 26,
"CO/N=C(\C(=O)N[C@@H]1C(=O)N2C(C(=O)O)=C(COC(C)=O)CS[C@H]12)c1csc(N)n1 [LA9, Cefotaxime]",,81.7 ± 5.2,
"CC1(C)[C@H](C(=O)O)N2C(=O)C[C@H]2S1(=O)=O [LB6, Sulbactam sodium]",84.5 µM and < 100 µM and 85 µM,201,
"CC1(C)S[C@@H]2[C@H](NC(=O)Cc3ccccc3)C(=O)N2[C@H]1C(=O)O [LC5, Benzylpenicillin potassium]",> 1000 µM,26.1 ± 3.35,
"CC1(C)S[C@@H]2[C@H](NC(=O)Cc3ccccc3)C(=O)N2[C@H]1C(=O)O [LD8, Procaine penicillin G]",84.8 µM and < 100 µM and 85 µM,77.4,
"O=C1[C@H](CC[C@H](O)c2ccc(F)cc2)[C@@H](c2ccc(O)cc2)N1c1ccc(F)cc1 [LE9, Ezetimibe]",27.5 µM and < 100 µM and 27 µM,52.6,
"CO/N=C(\C(=O)N[C@@H]1C(=O)N2C(C(=O)O)=CCS[C@H]12)c1csc(N)n1 [LD9, Ceftizoxime]",10.8 µM and < 100 µM and 11 µM,37.6 ± 7.4,
"CON=C(C(=O)NC1C(=O)N2C(C(=O)O)=C(CSC(=O)c3ccco3)CSC12)c1csc(N)n1 (centres unmarked) [LC2, Ceftiofur hydrochloride]",> 1000 µM,80.9 ± 13.2,

Compound,IC50 (recombinant TDP1; [5]),IC50 (recombinant TDP2; [6]) [µM],also measured
"CC1(C)S[C@@H]2[C@H](NC(=O)[C@H](N)c3ccccc3)C(=O)N2[C@H]1C(=O)O [LB9, Ampicillin sodium]",10.3 µM and < 100 µM and 10 µM,2.49,greater potency against TDP2 than TDP1 (recombinant TDP2; ratio of gel-based IC50 values): 4 fold
"CC1(C)S[C@@H]2[C@H](NC(=O)C(C(=O)O)c3ccccc3)C(=O)N2[C@H]1C(=O)O (some centres unmarked) [LG5, Carbenicillin disodium]",> 1000 µM,,
"CC(=O)OCC1=C(C(=O)O)N2C(=O)[C@@H](NC(=O)CCC[C@@H](N)C(=O)O)[C@H]2SC1 [LB2, Cephalosporin C zinc salt]",,,IC50 (recombinant TDP1; [7]): 5.54 µM and < 100 µM and 5.5 µM; IC50 (recombinant TDP2; [8]): 38.3 µM; greater potency against TDP1 than against TDP2 (recombinant TDP2; ratio of gel-based IC50 values): approximately 7 fold
"CC(=O)OCC1=C(C(=O)O)N2C(=O)[C@@H](NC(=O)CCC[C@@H](N)C(=O)O)[C@H]2SC1 [compound 11, cephalosporin C]",,,"binding mode from SPR (compound eluted off the chip without impacting binding capacity) (TDP1(148–608) [1]): more likely bound non-covalently; Kd (TDP1(148–608) [1]; TDP1(148–608) immobilized on CM5 chip, 50 nM – 25 µM compound): 11.6 µM; loss of inhibitory potencies with only the C-terminal residues TDP1(148–608) compared with full-length TDP1 (TDP1(148–608) [2]): more than 50 fold; effect in combination with TOP1 inhibitor CPT on cell viability ([3]; HCT116, 25 µM, CPT 0-100 nM, 72 h): acted synergistically; cytotoxicity on its own ([3]; without CPT): no cytotoxicity; IC50 (recombinant TDP1; [7]): 4.43 µM and 4.4 µM; IC50 (recombinant TDP2; [8]): > 100 µM; covalent modification of TDP1 (intact mass analysis) (TDP1(148–608) [4]): not able to detect covalent modification of TDP1"
"CC1(C)[C@H](C(=O)O)N2C(=O)C[C@H]2S1(=O)=O [LE7, Sulbactam]",,,IC50 (recombinant TDP1; read-out: TDP1 IC50): 595 µM
"CC1(C)S[C@@H]2[C@H](NC(=O)[C@H](N)c3ccc(O)cc3)C(=O)N2[C@H]1C(=O)O [LB11, Amoxicillin Sodium]",,99 ± 2.15,
"CC(=O)OCC1=C(C(=O)O)N2C(=O)[C@@H](NC(=O)CSc3ccncc3)[C@H]2SC1 [LA7, Cephapirin Benzathine]",,,IC50 (recombinant TDP1; read-out: TDP1 IC50): > 1000 µM
"Cc1onc(-c2c(Cl)cccc2Cl)c1C(=O)N[C@@H]1C(=O)N2[C@@H]1SC(C)(C)[C@@H]2C(=O)O [LH7, Dicloxacillin sodium monohydrate]",> 1000 µM,,
"CCOc1ccc2ccccc2c1C(=O)N[C@@H]1C(=O)N2[C@@H]1SC(C)(C)[C@@H]2C(=O)O [LF5, nafcillin sodium]",> 1000 µM,,
"CN(C)CCn1nnnc1SCC1=C(C(=O)O)N2C(=O)[C@@H](NC(=O)Cc3csc(N)n3)[C@H]2SC1 [LE8, Cefotiam hydrochloride]",> 1000 µM,,
"CC(=O)OCC1=C(C(=O)O)N2C(=O)[C@@H](NC(=O)CSC(=NC(C)C)NC(C)C)[C@H]2SC1 [LA4, Cefathiamidine]",> 1000 µM,,
"CC1(C)S[C@@H]2[C@H](NC(=O)[C@H](N)c3ccccc3)C(=O)N2[C@H]1C(=O)OCOC(=O)[C@@H]1N2C(=O)C[C@H]2S(=O)(=O)C1(C)C [LE4, Sultamicillin Tosylate]",> 1000 µM,,
"CC1(C)S[C@@H]2[C@H](NC(=O)Cc3ccccc3)C(=O)N2[C@H]1C(=O)O [LH9, Penicillin G sodium salt]",> 1000 µM,,
"CO/N=C(\C(=O)N[C@@H]1C(=O)N2C(C(=O)OCOC(=O)C(C)(C)C)=C(/C=C\c3scnc3C)CS[C@H]12)c1csc(N)n1 [LF3, Cefditoren pivoxil]",> 1000 µM,,
"CO/N=C(\C(=O)N[C@@H]1C(=O)N2C(C(=O)O)=C(CSC(=O)c3ccco3)CS[C@H]12)c1csc(N)n1 [LG1, Sodium ceftiofur]",> 1000 µM,,
